# Data taken from patent US8349577B2, “Method for evaluating blood-neural barrier permeability” (Research Foundation For Mental Hygiene, Inc., priority 2010, dated 2013).
# “Also recorded” adds a separate entry of the source.
# Legend:
# [1] = test system: PLA2 activity in lumbar CSF; test: Continuous fluorescence PLA2 activity assay with lumbar CSF (Bis-BODIPY FL C11-PC-labeled DOPC liposomes); format: biochemical, human; conditions: for Inhibition of PLA2 activity from lumbar CSF: 5 μL lumbar CSF incubated with inhibitor, FIGS. 3A-3C
# Procedure: (§1) PLA2 activity assays were carried out in triplicates using a continuous fluorescent measurement. In a 96-well microplate, 5 μL lumbar CSF (or 10 μM recombinant sPLA2) was diluted in 90 μL PLA2 assay buffer (10 mM Tris-HCl, pH 7.4; 100 mM KCl; 5 mM CaCl2; 1 mM DTT). Then, 5 μL Bis-BODIPY® FL C11-PC-labeled 100% DOPC liposomes were added to each well and the microplate was immediately placed in a temperature controlled (30° C.) cytofluor multi-well plate reader series 4000 (PerSeptive Biosystems®, Foster City, Calif.). The fluorescence intensity was recorded over 90 min (91 cycles of 60 sec each) at 485 nm excitation and 530 nm emission. Finally, PLA2 activity was evaluated using linear curve fitting with Graph Prism 3.0 (GraphPad Software™, San Diego, Calif.).
# (§2) Although there are currently twenty-two different PLA2 enzymes classified in five families (sPLA2, cPLA2, iPLA2, PAF-AH and lysosomal PLA2), there is currently no known tool for the specific characterization of each of these isozymes. Thus, to characterize the activity of each new PLA2 the current approach is to determine to which family the PLA2 enzyme belongs. For this purpose, a battery of inhibitors more or less specific against each PLA2 family is generally used to discriminate one family from another.
# (§3) Stock solutions and serial dilutions of PLA2 inhibitors (AACOCF3, BEL and Thioetheramide-PC) were prepared in PLA2 assay buffer supplemented by 4.25 mM Triton X-100. Each assay was carried out in the absence or presence of 5 μL of the appropriate inhibitor.
# [2] = test system: recombinant sPLA2; test: Continuous fluorescence PLA2 activity assay with recombinant sPLA2 (Bis-BODIPY FL C11-PC-labeled DOPC liposomes); format: biochemical; conditions: for Inhibition of PLA2 activity from recombinant sPLA2: recombinant sPLA2 incubated with inhibitor, FIGS. 3A-3C
# Procedure: as §1, §2, §3
# [3] = various concentrations of calcium, FIG. 3D
Molecule,Inhibition of PLA2 activity from lumbar CSF [1],Inhibition of PLA2 activity from recombinant sPLA2 [2],"Effect of increasing calcium concentration on PLA2 activity in lumbar CSF [1, 3]","Effect of increasing calcium concentration on recombinant sPLA2 activity [2, 3]"
O=C1O/C(=C/Br)CCC1c1cccc2ccccc12 (centres unmarked) [BEL],not and failed to do so,failed to do so,,
CCCCCCCCCCCCCCCCSC[C@H](COP(=O)(O)OCC[N+](C)(C)C)NC(=O)CCCCCCCCCCCCCCC [thioetheramide-PC],strongly inhibited; also recorded: dose-dependently inhibited,dose-dependently inhibited,,
CCCCC/C=C\C/C=C\C/C=C\C/C=C\CCCC(=O)C(F)(F)F [AACOCF3],not and failed to do so,failed to do so,,
calcium,,,increase of PLA2 activity,increase of PLA2 activity
